# “And” between values parts separate entries of the source, which are not always exact repeats. Equal entries are not always repeated. “Also recorded” adds a separate entry of the source.
# Experiments:
# [1] = test system: A549 cell lines; assay: MTT proliferation assay, A549 cells; format: cell-based; settings: Homo sapiens, A549 (A549-Luc) cells
# Protocol: The A549 (human lung carcinoma) cell line was grown in a Dulbecco’s Modified Eagle Medium (DMEM) containing 10% fetal bovine serum (FBS) and 100 units/mL penicillin–100 μg/mL streptomycin and 2 mM L-glutamine for cytotoxicity experiments. Cells were maintained at 37 °C temperature conditions containing 5% CO2. When the cells covered 95–98% of the flask, they were passaged.
# The 3-(4,5-dimethylthiazol-2-yl)-2,5-diphenyltetrazolium bromide (MTT) proliferation assay was performed to evaluate the cytotoxicity of the 3 and 4 compounds. Cells were seeded at a density of 5 × 10^4 cells/cm^2 and incubated at 37 °C in 95% air, 5% CO2 environments for 24 h. Substances 3 and 4 were first dissolved in DMSO, then dilutions were prepared by dispersing them in the DMEM cell growth medium. The dose intervals of substances 3 and 4 were prepared as 400, 200, 100, 50, and 25 μM. The dose intervals of substances 3 and 4 were placed on a 24-well cell culture plate and then incubated for 24 h. After incubation, the medium was removed and replaced with the MTT-containing medium. Plates were incubated for an additional 4 h at 37 °C. MTT medium was removed, and 100 μL of DMSO was added to dissolve the formazan crystals. The absorbance was determined using a plate reader at a wavelength of 540 nm. IC50 values for 24, 48, and 72 h were calculated using GraphPad Prism5 software (GraphPad, San Diego, CA).
# Our group recently determined that isoindole-1,3-dione derivatives are potential tyrosine kinase enzyme inhibitors and have antiproliferative effects against some cell lines according to MTT test results. It has been confirmed that the antiproliferative effects vary according to the nitrogen (N) atom and the groups attached to the ring. In addition, some compounds are known to exert cytotoxic effects against more than one cell line. […] Benzyl derivatives of isoindole-1,3-dione 3 and 4 were synthesized according to the method used in our previous work.[9] First, the cytotoxic effects of both compounds against A549-Luc cells were examined. IC50 values of those drugs were calculated using the MTT activity assay. Cell viability of A549-Luc cells using two compounds was followed for 24, 48, and 72 h of incubation time. According to the results of these experiments, the optimum incubation period was determined as 48 h.
# [2] = 28 day subacute toxicity study, blood biochemical parameters; settings: for ALB / ALT / AST / TBIL: 200 μM group, 100 μL i.v. 3 times a week for 4 weeks, blood
# [3] = Weight and survival of tumor-bearing nude mice during and after treatment; format: in vivo; settings: for weight of nude mice: individual mice (1)-(5); for survival of tumor-bearing nude mice: five mice per group, observed for 60 days
# Protocol: Male atypical nude mice, 6–8 weeks old, were used for in vivo xenograft tumor models. […] For the purpose of xenograft administration, nude mice were injected subcutaneously with 100 μL of 5 × 10^6 A549-Luc cell suspension. The presence of cancer after cell administration to nude mice was followed by imaging with an IVIS device. In order to monitor tumor formation and tumor volume detection, luciferin [Biovision Inc., USA; 12 mg/mL in phosphate-buffered saline (PBS)] was injected intraperitoneally followed by visualization with IVIS 5 min later. When tumor volume reaches about 2000 mm^3, cancerous nudes are divided into three groups: the control group, 3 group, and 4 group. Grouping was made as 3–5 animals in each group. The following procedures were prepared according to the groups, and then they were implemented. In addition, the weights of nude mice were regularly checked and recorded.
# Male atypical nude mice aged 6–8 weeks are commonly used in in vivo xenograft tumor models. A549-luc lung cancer cells were injected into nude mice in all three groups, and tumor growth was induced with a xenograft model. For xenograft administration, 100 μL of 5 × 10^6 A549-luc cell suspension was injected subcutaneously into nude mice. After cell application to nude mice, it was determined whether there was cancer or not by imaging with the IVIS device. After the cancer groups were formed, the treatment phase was started. […] Each prepared sample was given to the animals by tail vein administration, three doses (as described in Section 2.3) per week, and the IVIS images taken at 5 min after luciferin (200 μL of 12 mg/mL stock administered subcutaneously) at certain time intervals were evaluated.
# [4] = test system: HeLa cell lines; set-up: method as in PMID 31759659; settings: 48 h; cited from earlier work
# [5] = test system: CD1 mice; assay: Acute toxicity study; format: in vivo; settings: 200 μM, 100 μL intravenously once, 2 females and 2 males, 14 days
# [6] = 3 days, 200 μM, 20 μL tail vein, three doses a week, in g (unit assumed)
# [7] = 7 days, 200 μM, 20 μL tail vein, three doses a week, in g (unit assumed)
# [8] = 10 days, 200 μM, 20 μL tail vein, three doses a week, in g (unit assumed)
# [9] = 15 days, 200 μM, 20 μL tail vein, three doses a week, in g (unit assumed)
# [10] = 200 μM, 20 μL tail vein, three doses a week
# [11] = initially, 200 μM in DMSO, 20 μL tail vein, three doses a week, in g (unit assumed)
SMILES,IC50 ([1]; 24 h) [µM],IC50 ([1]; 48 h) [µM],IC50 ([1]; 72 h) [µM],ALB [2],ALT [2],AST [2],TBIL [2],"weight of nude mice [3, 6]","weight of nude mice [3, 7]","weight of nude mice [3, 8]","weight of nude mice [3, 9]","survival of tumor-bearing nude mice [3, 10]","weight of nude mice [3, 11]",IC50 [4] [µM],abnormalities in the behavior of the mice [5],further results
CC(=O)O[C@H]1C=C[C@H](OC(C)=O)[C@H]2C(=O)N(Cc3ccccc3)C(=O)[C@H]21 [compound 3],266,114,68.8,2.34 ± 0.05,60.5 ± 6.36,114 ± 9.90,0.02 ± 0.01,26.25 and 24.90 and 23.54 and 27.20,28.50 and 25.42 and 24.87 and 29.26 and 30.77,28.52 and 25.98 and 25.89 and 30.26 and 32.07,31.02 and 28.50 and 26.43 and 32.30 and 33.71,did not die; also recorded: survived for 60 days,23.58 and 24.10 and 22.14 and 22.18 and 24.24,149,no abnormalities,"increase of AST level compared with the control group ([2]; 1st dose (200 μM) groups): more than the increase related to 4; weight of nude mice ([3]; 20 days, Ex = dead, in g (unit assumed)): 32.60 and 30.60 and 28.70 and 33.78 and 36.05; weight of nude mice ([3]; 30 days, Ex = dead, in g (unit assumed)): 30.90 and 29.40 and 32.96 and 34.86; weight of nude mice ([3]; 40 days, treatment discontinued on day 30, Ex = dead, in g (unit assumed)): 30.81 and 31.30 and 30.31 and 32.30 and 34.31; weight of nude mice ([3]; 50 days, treatment discontinued on day 30, Ex = dead, in g (unit assumed)): 30.91 and 33.40 and 31.25 and 33.12 and 34.65; weight of nude mice ([3]; 60 days, treatment discontinued on day 30, Ex = dead, in g (unit assumed)): 32.39 and 34.65 and 32.60 and 33.37 and 35.95"
CC(=O)O[C@@H]1[C@@H]2C(=O)N(Cc3ccccc3)C(=O)[C@@H]2C=C[C@H]1Cl [compound 4],349,116,83.6,2.63 ± 0.07,57.5 ± 0.71,94.5 ± 3.54,0.03 ± 0.03,29.17 and 26.62 and 29.35 and 24.80 and 28.90,33.10 and 30.76 and 32.46 and 25.32 and 30.89,31.71 and 30.85 and 31.40 and 27.13 and 31.24,35.20 and 32.46 and 31.25 and 28.34 and 32.30,became Ex after 15 days; also recorded: found Ex in their cages after the 3rd dose; also recorded: four nude mice were dead; also recorded: showed Ex after the third dose,24.57 and 22.94 and 24.50 and 23.01 and 24.01,141,no abnormalities,"weight of nude mice ([3]; 20 days, Ex = dead): 37.08 and Ex; weight of nude mice ([3]; 30 days, Ex = dead): 35.54 and Ex; weight of nude mice ([3]; 40 days, treatment discontinued on day 30, Ex = dead): 34.30 and Ex; weight of nude mice ([3]; 50 days, treatment discontinued on day 30, Ex = dead): 30.41 and Ex; weight of nude mice ([3]; 60 days, treatment discontinued on day 30, Ex = dead): 32.95 and Ex"

# Reference: paper PMC10077444, “Evaluation of In Vivo Biological Activity Profiles of Isoindole-1,3-dione Derivatives: Cytotoxicity, Toxicology, and Histopathology Studies” (ACS Omega, 2023)
